Legend:
[1] = system: Mus musculus; test: Biodistribution in mouse small intestine at 8.4 MBq/0.1 ml, iv after 1 min by PET imaging analysis; type: ADME, organism-based; conditions: in vivo
[2] = system: Mus musculus; test: Biodistribution in mouse small intestine at 8.4 MBq/0.1 ml, iv after 5 mins by PET imaging analysis; type: ADME, organism-based; conditions: in vivo
[3] = system: Mus musculus; test: Biodistribution in mouse small intestine at 8.4 MBq/0.1 ml, iv after 15 mins by PET imaging analysis; type: ADME, organism-based; conditions: in vivo, 0.25 h
[4] = system: Mus musculus; test: Biodistribution in mouse small intestine at 8.4 MBq/0.1 ml, iv after 30 mins by PET imaging analysis; type: ADME, organism-based; conditions: in vivo, 0.5 h
[5] = system: Mus musculus; test: Biodistribution in mouse small intestine at 8.4 MBq/0.1 ml, iv after 60 mins by PET imaging analysis; type: ADME, organism-based; conditions: in vivo, 1 h
[6] = system: Mus musculus; test: Biodistribution in mouse large intestine at 8.4 MBq/0.1 ml, iv after 1 min by PET imaging analysis; type: ADME, organism-based; conditions: in vivo
[7] = system: Mus musculus; test: Biodistribution in mouse large intestine at 8.4 MBq/0.1 ml, iv after 5 mins by PET imaging analysis; type: ADME, organism-based; conditions: in vivo
[8] = system: Mus musculus; test: Biodistribution in mouse large intestine at 8.4 MBq/0.1 ml, iv after 15 mins by PET imaging analysis; type: ADME, organism-based; conditions: in vivo, 0.25 h
[9] = system: Mus musculus; test: Biodistribution in mouse large intestine at 8.4 MBq/0.1 ml, iv after 30 mins by PET imaging analysis; type: ADME, organism-based; conditions: in vivo, 0.5 h
[10] = system: Mus musculus; test: Biodistribution in mouse large intestine at 8.4 MBq/0.1 ml, iv after 60 mins by PET imaging analysis; type: ADME, organism-based; conditions: in vivo, 1 h
[11] = system: Muscle tissue; test: Biodistribution in mouse muscle at 8.4 MBq/0.1 ml, iv after 1 min by PET imaging analysis; type: ADME, organism-based; conditions: in vivo
[12] = system: Muscle tissue; test: Biodistribution in mouse muscle at 8.4 MBq/0.1 ml, iv after 5 mins by PET imaging analysis; type: ADME, organism-based; conditions: in vivo
[13] = system: Muscle tissue; test: Biodistribution in mouse muscle at 8.4 MBq/0.1 ml, iv after 15 mins by PET imaging analysis; type: ADME, organism-based; conditions: in vivo, 0.25 h
[14] = system: Muscle tissue; test: Biodistribution in mouse muscle at 8.4 MBq/0.1 ml, iv after 30 mins by PET imaging analysis; type: ADME, organism-based; conditions: in vivo, 0.5 h
[15] = system: Muscle tissue; test: Biodistribution in mouse muscle at 8.4 MBq/0.1 ml, iv after 60 mins by PET imaging analysis; type: ADME, organism-based; conditions: in vivo, 1 h
[16] = system: Brain; test: Biodistribution in mouse brain at 8.4 MBq/0.1 ml, iv after 1 min by PET imaging analysis; type: ADME, organism-based; conditions: in vivo
[17] = system: Brain; test: Biodistribution in mouse brain at 8.4 MBq/0.1 ml, iv after 5 mins by PET imaging analysis; type: ADME, organism-based; conditions: in vivo
[18] = system: Brain; test: Biodistribution in mouse brain at 8.4 MBq/0.1 ml, iv after 15 mins by PET imaging analysis; type: ADME, organism-based; conditions: in vivo, 0.25 h
[19] = system: Brain; test: Biodistribution in mouse brain at 8.4 MBq/0.1 ml, iv after 30 mins by PET imaging analysis; type: ADME, organism-based; conditions: in vivo, 0.5 h
[20] = system: Brain; test: Biodistribution in mouse brain at 8.4 MBq/0.1 ml, iv after 60 mins by PET imaging analysis; type: ADME, organism-based; conditions: in vivo, 1 h
[21] = system: Brain; test: Biodistribution in wild type mouse brain by PET imaging analysis; type: ADME, organism-based; conditions: in vivo
[22] = system: Brain; test: Biodistribution in P-gp/BCRP knockout mouse brain by PET imaging analysis; type: ADME, organism-based; conditions: in vivo
[23] = system: Brain; test: Ratio of drug uptake in P-gp/BCRP knockout mouse brain to wild type mouse brain; type: ADME; conditions: in vivo
[24] = system: Blood; test: Biodistribution in mouse blood at 8.4 MBq/0.1 ml, iv after 1 min by PET imaging analysis; type: ADME, organism-based; conditions: in vivo
[25] = system: Blood; test: Biodistribution in mouse blood at 8.4 MBq/0.1 ml, iv after 5 mins by PET imaging analysis; type: ADME, organism-based; conditions: in vivo
[26] = system: Blood; test: Biodistribution in mouse blood at 8.4 MBq/0.1 ml, iv after 15 mins by PET imaging analysis; type: ADME, organism-based; conditions: in vivo, 0.25 h
[27] = system: Blood; test: Biodistribution in mouse blood at 8.4 MBq/0.1 ml, iv after 30 mins by PET imaging analysis; type: ADME, organism-based; conditions: in vivo, 0.5 h
[28] = system: Blood; test: Biodistribution in mouse blood at 8.4 MBq/0.1 ml, iv after 60 mins by PET imaging analysis; type: ADME, organism-based; conditions: in vivo, 1 h
[29] = system: Heart; test: Biodistribution in mouse heart at 8.4 MBq/0.1 ml, iv after 1 min by PET imaging analysis; type: ADME, organism-based; conditions: in vivo
[30] = system: Heart; test: Biodistribution in mouse heart at 8.4 MBq/0.1 ml, iv after 5 mins by PET imaging analysis; type: ADME, organism-based; conditions: in vivo
[31] = system: Heart; test: Biodistribution in mouse heart at 8.4 MBq/0.1 ml, iv after 15 mins by PET imaging analysis; type: ADME, organism-based; conditions: in vivo, 0.25 h
[32] = system: Heart; test: Biodistribution in mouse heart at 8.4 MBq/0.1 ml, iv after 30 mins by PET imaging analysis; type: ADME, organism-based; conditions: in vivo, 0.5 h
[33] = system: Heart; test: Biodistribution in mouse heart at 8.4 MBq/0.1 ml, iv after 60 mins by PET imaging analysis; type: ADME, organism-based; conditions: in vivo, 1 h
[34] = system: Lung; test: Biodistribution in mouse lung at 8.4 MBq/0.1 ml, iv after 1 min by PET imaging analysis; type: ADME, organism-based; conditions: in vivo
[35] = system: Lung; test: Biodistribution in mouse lung at 8.4 MBq/0.1 ml, iv after 5 mins by PET imaging analysis; type: ADME, organism-based; conditions: in vivo
[36] = system: Lung; test: Biodistribution in mouse lung at 8.4 MBq/0.1 ml, iv after 15 mins by PET imaging analysis; type: ADME, organism-based; conditions: in vivo, 0.25 h
[37] = system: Lung; test: Biodistribution in mouse lung at 8.4 MBq/0.1 ml, iv after 30 mins by PET imaging analysis; type: ADME, organism-based; conditions: in vivo, 0.5 h
[38] = system: Lung; test: Biodistribution in mouse lung at 8.4 MBq/0.1 ml, iv after 60 mins by PET imaging analysis; type: ADME, organism-based; conditions: in vivo, 1 h
[39] = system: Liver; test: Biodistribution in mouse liver at 8.4 MBq/0.1 ml, iv after 1 min by PET imaging analysis; type: ADME, organism-based; conditions: in vivo
[40] = system: Liver; test: Biodistribution in mouse liver at 8.4 MBq/0.1 ml, iv after 5 mins by PET imaging analysis; type: ADME, organism-based; conditions: in vivo
[41] = system: Liver; test: Biodistribution in mouse liver at 8.4 MBq/0.1 ml, iv after 15 mins by PET imaging analysis; type: ADME, organism-based; conditions: in vivo, 0.25 h
[42] = system: Liver; test: Biodistribution in mouse liver at 8.4 MBq/0.1 ml, iv after 30 mins by PET imaging analysis; type: ADME, organism-based; conditions: in vivo, 0.5 h
[43] = system: Liver; test: Biodistribution in mouse liver at 8.4 MBq/0.1 ml, iv after 60 mins by PET imaging analysis; type: ADME, organism-based; conditions: in vivo, 1 h
[44] = system: Pancreas; test: Biodistribution in mouse pancreas at 8.4 MBq/0.1 ml, iv after 1 min by PET imaging analysis; type: ADME, organism-based; conditions: in vivo
[45] = system: Pancreas; test: Biodistribution in mouse pancreas at 8.4 MBq/0.1 ml, iv after 5 mins by PET imaging analysis; type: ADME, organism-based; conditions: in vivo
[46] = system: Pancreas; test: Biodistribution in mouse pancreas at 8.4 MBq/0.1 ml, iv after 15 mins by PET imaging analysis; type: ADME, organism-based; conditions: in vivo, 0.25 h
[47] = system: Pancreas; test: Biodistribution in mouse pancreas at 8.4 MBq/0.1 ml, iv after 30 mins by PET imaging analysis; type: ADME, organism-based; conditions: in vivo, 0.5 h
[48] = system: Pancreas; test: Biodistribution in mouse pancreas at 8.4 MBq/0.1 ml, iv after 60 mins by PET imaging analysis; type: ADME, organism-based; conditions: in vivo, 1 h
[49] = system: Spleen; test: Biodistribution in mouse spleen at 8.4 MBq/0.1 ml, iv after 1 min by PET imaging analysis; type: ADME, organism-based; conditions: in vivo
[50] = system: Spleen; test: Biodistribution in mouse spleen at 8.4 MBq/0.1 ml, iv after 5 mins by PET imaging analysis; type: ADME, organism-based; conditions: in vivo
[51] = system: Spleen; test: Biodistribution in mouse spleen at 8.4 MBq/0.1 ml, iv after 15 mins by PET imaging analysis; type: ADME, organism-based; conditions: in vivo, 0.25 h
[52] = system: Spleen; test: Biodistribution in mouse spleen at 8.4 MBq/0.1 ml, iv after 30 mins by PET imaging analysis; type: ADME, organism-based; conditions: in vivo, 0.5 h
[53] = system: Spleen; test: Biodistribution in mouse spleen at 8.4 MBq/0.1 ml, iv after 60 mins by PET imaging analysis; type: ADME, organism-based; conditions: in vivo, 1 h
[54] = system: Kidney; test: Biodistribution in mouse kidney at 8.4 MBq/0.1 ml, iv after 1 min by PET imaging analysis; type: ADME, organism-based; conditions: in vivo
[55] = system: Kidney; test: Biodistribution in mouse kidney at 8.4 MBq/0.1 ml, iv after 5 mins by PET imaging analysis; type: ADME, organism-based; conditions: in vivo
[56] = system: Kidney; test: Biodistribution in mouse kidney at 8.4 MBq/0.1 ml, iv after 15 mins by PET imaging analysis; type: ADME, organism-based; conditions: in vivo, 0.25 h
[57] = system: Kidney; test: Biodistribution in mouse kidney at 8.4 MBq/0.1 ml, iv after 30 mins by PET imaging analysis; type: ADME, organism-based; conditions: in vivo, 0.5 h
[58] = system: Kidney; test: Biodistribution in mouse kidney at 8.4 MBq/0.1 ml, iv after 60 mins by PET imaging analysis; type: ADME, organism-based; conditions: in vivo, 1 h
[59] = system: Brain; test: Ratio of AUC (0 to 90 mins) in P-gp/BCRP knockout mouse brain to AUC (0 to 90 mins) in wild type mouse brain; conditions: in vivo

COc1cc2ncnc(Oc3cccc(N[11C](=O)Nc4cc(C(C)(C)C(F)(F)F)on4)c3)c2cc1OC.Cl
Drug uptake [1]: 5.92 % ID/g
Drug uptake [2]: 14.31 % ID/g
Drug uptake [3]: 22.18 % ID/g
Drug uptake [4]: 25.4 % ID/g
Drug uptake [5]: 21.23 % ID/g
Drug uptake [6]: 0.81 % ID/g
Drug uptake [7]: 0.76 % ID/g
Drug uptake [8]: 1.01 % ID/g
Drug uptake [9]: 1.69 % ID/g
Drug uptake [10]: 1.98 % ID/g
Drug uptake [11]: 2.37 % ID/g
Drug uptake [12]: 1.52 % ID/g
Drug uptake [13]: 1.6 % ID/g
Drug uptake [14]: 1.54 % ID/g
Drug uptake [15]: 1.06 % ID/g
Drug uptake [16]: 0.21 % ID/g
Drug uptake [17]: 0.1 % ID/g
Drug uptake [18]: 0.11 % ID/g
Drug uptake [19]: 0.12 % ID/g
Drug uptake [20]: 0.08 % ID/g
Drug uptake [21]: Active
Drug uptake [22]: Active
Ratio [23]: 24
Drug uptake [24]: 3.14 % ID/g
Drug uptake [25]: 0.99 % ID/g
Drug uptake [26]: 0.95 % ID/g
Drug uptake [27]: 0.87 % ID/g
Drug uptake [28]: 0.61 % ID/g
Drug uptake [29]: 11.25 % ID/g
Drug uptake [30]: 4.43 % ID/g
Drug uptake [31]: 3.56 % ID/g
Drug uptake [32]: 3.08 % ID/g
Drug uptake [33]: 1.98 % ID/g
Drug uptake [34]: 14.3 % ID/g
Drug uptake [35]: 4.75 % ID/g
Drug uptake [36]: 3.76 % ID/g
Drug uptake [37]: 3.34 % ID/g
Drug uptake [38]: 2.24 % ID/g
Drug uptake [39]: 17.18 % ID/g
Drug uptake [40]: 15.3 % ID/g
Drug uptake [41]: 17.4 % ID/g
Drug uptake [42]: 18.42 % ID/g
Drug uptake [43]: 12.69 % ID/g
Drug uptake [44]: 2.96 % ID/g
Drug uptake [45]: 2.77 % ID/g
Drug uptake [46]: 3.52 % ID/g
Drug uptake [47]: 3.94 % ID/g
Drug uptake [48]: 2.66 % ID/g
Drug uptake [49]: 3.92 % ID/g
Drug uptake [50]: 2.05 % ID/g
Drug uptake [51]: 2.05 % ID/g
Drug uptake [52]: 2.03 % ID/g
Drug uptake [53]: 1.36 % ID/g
Drug uptake [54]: 12.33 % ID/g
Drug uptake [55]: 8.36 % ID/g
Drug uptake [56]: 7.68 % ID/g
Drug uptake [57]: 7.44 % ID/g
Drug uptake [58]: 4.91 % ID/g
Ratio AUC [59]: 8

— ChEMBL document CHEMBL3351810, “[(11)C-carbonyl]CEP-32496: radiosynthesis, biodistribution and PET study of brain uptake in P-gp/BCRP knockout mice” (Bioorg Med Chem Lett, 2014)
